Measured values taken from patent US7642221B2, “Substituted thien-3-yl-sulphonylamino(thio)carbonyl-triazoline(ethi)ones” (Bayer Aktiengesellschaft, priority 1999, dated 2010).

Columns and labels:
[1] = tested on: weeds; test: Post-emergence test, activity against weeds; assay type: in vivo
Experimental: (§1) • Solvent: 5 parts by weight of acetone • Emulsifier: 1 part by weight of alkylaryl polyglycol ether
(§2) To produce a suitable preparation of active compound, one part by weight of active compound is mixed with the stated amount of solvent, the stated amount of emulsifier is added and the concentrate is diluted with water to the desired concentration.
(§3) Test plants which have a height of 5-15 cm are sprayed with the preparation of active compound such that the particular amounts of active compound desired are applied per unit area. The concentration of the spray liquor is chosen so that the particular amounts of active compound desired are applied in 1000 l of water/ha.
(§4) After three weeks, the degree of damage to the plants is rated in % damage in comparison to the development of the untreated control.
(§5) The figures denote: • 0%=no effect (like untreated control) • 100%=total destruction

[2] = tested on: Solanum; test: Post-emergence test/greenhouse; assay type: in vivo; details: greenhouse, 15 g of ai/ha, rated after three weeks
Experimental: as §1, §2, §3, §4, §5

[3] = tested on: Abutilon; test: Post-emergence test/greenhouse; assay type: in vivo; details: greenhouse, rated after three weeks
Experimental: as §1, §2, §3, §4, §5

[4] = tested on: Wheat; test: Post-emergence test/greenhouse; assay type: in vivo; details: greenhouse, 15 g of ai/ha, rated after three weeks
Experimental: as §1, §2, §3, §4, §5

[5] = tested on: Alopecurus; test: Post-emergence test/greenhouse; assay type: in vivo; details: greenhouse, rated after three weeks
Experimental: as §1, §2, §3, §4, §5

[6] = tested on: Echinochloa; test: Post-emergence test/greenhouse; assay type: in vivo; details: greenhouse, 15 g of ai/ha, rated after three weeks
Experimental: as §1, §2, §3, §4, §5

[7] = tested on: Stellaria; test: Post-emergence test/greenhouse; assay type: in vivo; details: greenhouse, 15 g of ai/ha, rated after three weeks
Experimental: as §1, §2, §3, §4, §5

[8] = tested on: Amaranthus; test: Post-emergence test/greenhouse; assay type: in vivo; details: greenhouse, rated after three weeks
Experimental: as §1, §2, §3, §4, §5

[9] = tested on: Matricaria; test: Post-emergence test/greenhouse; assay type: in vivo; details: greenhouse, 15 g of ai/ha, rated after three weeks
Experimental: as §1, §2, §3, §4, §5

[10] = tested on: weeds; test: Pre-emergence test, activity against weeds; assay type: in vivo
Experimental: as §1
(§6) To produce a suitable preparation of active compound, 1 part by weight of active compound is mixed with the stated amount of solvent, the stated amount of emulsifier is added and the concentrate is diluted with water to the desired concentration.
(§7) Seeds of the test plants are sown in normal soil. After about 24 hours, the soil is sprayed with the preparation of active compound such that the particular amount of active compound desired is applied per unit area. The concentration of the spray liquor is chosen so that the particular amount of active compound desired is applied in 1000 liters of water per hectare.
as §4
(§8) The figure denote: • 0%=no effect (like untreated control) • 100%=total destruction

[11] = tested on: Solanum; test: Pre-emergence test/greenhouse; assay type: in vivo; details: greenhouse, 60 g of ai/ha, rated after three weeks
Experimental: as §1, §6, §7, §4, §8

[12] = tested on: Wheat; test: Pre-emergence test/greenhouse; assay type: in vivo; details: greenhouse, 60 g of ai/ha, rated after three weeks
Experimental: as §1, §6, §7, §4, §8

[13] = tested on: Alopecurus; test: Pre-emergence test/greenhouse; assay type: in vivo; details: greenhouse, 60 g of ai/ha, rated after three weeks
Experimental: as §1, §6, §7, §4, §8

[14] = tested on: Barley; test: Pre-emergence test/greenhouse; assay type: in vivo; details: greenhouse, 60 g of ai/ha, rated after three weeks
Experimental: as §1, §6, §7, §4, §8

[15] = tested on: Stellaria; test: Pre-emergence test/greenhouse; assay type: in vivo; details: greenhouse, 60 g of ai/ha, rated after three weeks
Experimental: as §1, §6, §7, §4, §8

[16] = tested on: Amaranthus; test: Pre-emergence test/greenhouse; assay type: in vivo; details: greenhouse, 60 g of ai/ha, rated after three weeks
Experimental: as §1, §6, §7, §4, §8

[17] = tested on: Sinapis; test: Post-emergence test/greenhouse; assay type: in vivo; details: greenhouse, 250 g of ai/ha, rated after three weeks
Experimental: as §1, §2, §3, §4, §5

[18] = tested on: Setaria; test: Post-emergence test/greenhouse; assay type: in vivo; details: greenhouse, 250 g of ai/ha, rated after three weeks
Experimental: as §1, §2, §3, §4, §5

[19] = tested on: Xanthium; test: Post-emergence test/greenhouse; assay type: in vivo; details: greenhouse, 250 g of ai/ha, rated after three weeks
Experimental: as §1, §2, §3, §4, §5

[20] = tested on: Avenafatua; test: Post-emergence test/greenhouse; assay type: in vivo; details: greenhouse, 250 g of ai/ha, rated after three weeks
Experimental: as §1, §2, §3, §4, §5

[21] = tested on: Bromus; test: Pre-emergence test/greenhouse; assay type: in vivo; details: greenhouse, 60 g of ai/ha, rated after three weeks
Experimental: as §1, §6, §7, §4, §8

[22] = tested on: Viola; test: Pre-emergence test/greenhouse; assay type: in vivo; details: greenhouse, 60 g of ai/ha, rated after three weeks
Experimental: as §1, §6, §7, §4, §8

[23] = tested on: Veronica; test: Pre-emergence test/greenhouse; assay type: in vivo; details: greenhouse, 60 g of ai/ha, rated after three weeks
Experimental: as §1, §6, §7, §4, §8

[24] = tested on: Chenopodium; test: Pre-emergence test/greenhouse; assay type: in vivo; details: greenhouse, 60 g of ai/ha, rated after three weeks
Experimental: as §1, §6, §7, §4, §8

[25] = tested on: Cotton; test: Pre-emergence test/greenhouse; assay type: in vivo; details: greenhouse, 60 g of ai/ha, rated after three weeks
Experimental: as §1, §6, §7, §4, §8

[26] = tested on: Echinochloa; test: Pre-emergence test/greenhouse; assay type: in vivo; details: greenhouse, 60 g of ai/ha, rated after three weeks
Experimental: as §1, §6, §7, §4, §8

[27] = tested on: Setaria; test: Pre-emergence test/greenhouse; assay type: in vivo; details: greenhouse, 60 g of ai/ha, rated after three weeks
Experimental: as §1, §6, §7, §4, §8

[28] = tested on: Matricaria; test: Pre-emergence test/greenhouse; assay type: in vivo; details: greenhouse, 60 g of ai/ha, rated after three weeks
Experimental: as §1, §6, §7, §4, §8

[29] = tested on: Cyperus; test: Pre-emergence test/greenhouse; assay type: in vivo; details: greenhouse, 60 g of ai/ha, rated after three weeks
Experimental: as §1, §6, §7, §4, §8

[30] = tested on: Abutilon; test: Pre-emergence test/greenhouse; assay type: in vivo; details: greenhouse, 60 g of ai/ha, rated after three weeks
Experimental: as §1, §6, §7, §4, §8

[31] = tested on: Maize; test: Pre-emergence test/greenhouse; assay type: in vivo; details: greenhouse, 60 g of ai/ha, rated after three weeks
Experimental: as §1, §6, §7, §4, §8

SMILES | activity against weeds [1] | activity against weeds [10] | degree of damage to the plants, Solanum [11] [%] | degree of damage to the plants, Alopecurus [13] [%] | degree of damage to the plants, Stellaria [15] [%] | degree of damage to the plants, Sinapis [17] [%] | degree of damage to the plants, Setaria [18] [%] | degree of damage to the plants, Xanthium [19] [%] | degree of damage to the plants, Abutilon ([3]; 250 g of ai/ha) [%] | degree of damage to the plants, Avenafatua [20] [%] | degree of damage to the plants, Alopecurus ([5]; 250 g of ai/ha) [%] | degree of damage to the plants, Amaranthus ([8]; 250 g of ai/ha) [%] | degree of damage to the plants, Bromus [21] [%] | degree of damage to the plants, Viola [22] [%] | degree of damage to the plants, Veronica [23] [%] | degree of damage to the plants, Chenopodium [24] [%] | degree of damage to the plants, Setaria [27] [%] | also measured
CCCOc1nn(C(=O)NS(=O)(=O)c2c(C(=O)OC)csc2C)c(=O)n1C [Example 3] | very strong activity | very strong activity | 90 | 80 | 95 |  |  |  |  |  |  |  |  |  |  |  |  | degree of damage to the plants, Solanum [2]: 95%; degree of damage to the plants, Abutilon ([3]; 15 g of ai/ha): 95%; degree of damage to the plants, Wheat [4]: 0%; degree of damage to the plants, Alopecurus ([5]; 15 g of ai/ha): 70%; degree of damage to the plants, Echinochloa [6]: 60%; degree of damage to the plants, Stellaria [7]: 100%; degree of damage to the plants, Amaranthus ([8]; 15 g of ai/ha): 95%; degree of damage to the plants, Matricaria [9]: 90%; degree of damage to the plants, Wheat [12]: 0%; degree of damage to the plants, Barley [14]: 0%; degree of damage to the plants, Amaranthus [16]: 95%
COC(=O)c1csc(C)c1S(=O)(=O)NC(=O)n1nc(OC(C)C)n(C2CC2)c1=O [Example 8] | very strong activity | very strong activity | 90 |  | 95 | 95 | 100 | 100 | 100 | 100 | 100 | 100 | 90 | 100 | 95 | 90 |  | degree of damage to the plants, Cotton [25]: 0%; degree of damage to the plants, Echinochloa [26]: 90%
CCOc1nn(C(=O)NS(=O)(=O)c2c(C(=O)OC)csc2C)c(=O)n1C [Example 1, methyl 4-[[[(3-ethoxy-4,5-dihydro-4-methyl-5-oxo-1H-1,2,4-triazol-1-yl)-carbonyl]-amino]-sulphonyl]-5-methyl-thiophene-3-carboxylate] | very strong activity | very strong activity |  | 90 | 95 | 100 | 100 | 100 | 100 | 100 | 100 | 100 | 90 | 100 | 100 | 100 | 90 | degree of damage to the plants, Matricaria [28]: 95%; melting point: 163 °C
COC(=O)c1csc(C)c1S(=O)(=O)NC(=O)n1nc(SC)n(C)c1=O [Example 12] | very strong activity | very strong activity |  |  | 100 | 100 | 100 | 100 | 100 | 100 | 95 | 100 | 100 | 100 | 100 |  | 100 | degree of damage to the plants, Cyperus [29]: 100%; degree of damage to the plants, Abutilon [30]: 100%; degree of damage to the plants, Maize [31]: 10%
